US20080004276A1, “Method for treating non-hodgkin's lymphoma” (priority 2006, published 2008)
Entries after “also recorded” stand apart in the source; their conditions may differ.

Experiments:
Her2 = assay: IC50 range for inhibition of Her2 degradation (Table 8); format: cell-based; conditions: Homo sapiens
Protocol: Human high-Her2 breast carcinoma BT474 (HTB-20), SK-BR-3 (HTB-30) and MCF-7 breast carcinoma (HTB-22) from American Type Culture Collection, VA, USA were grown in Dulbecco's modified Eagle's medium with 4 mM L-glutamine and antibiotics (100 IU/ml penicillin and 100 ug/ml streptomycine; GibcoBRL). To obtain exponential cell growth, cells were trypsinized, counted and seeded at a cell density of 0.5×10^6 cells/ml regularly, every 3 days. All experiments were performed on day 1 after cell passage. […]
After treatment with a compound of the invention, cells were washed twice with 1×PBS/1% FBS, and then stained with anti-Her2-FITC (#340553, BD) for 30 min at 4° C. Cells were then washed three times in FACS buffer before the fixation in 0.5 ml 1% paraformadehydrede. Data was acquired on a FACSCalibur system. Isotype-matched controls were used to establish the non-specific staining of samples and to set the fluorescent markers. A total 10,000 events were recorded from each sample. Data were analysed by using CellQuest software (BD Biosciences).

Daudi = Daudi non-Hodgkin's lymphoma SCID mouse xenograft; format: in vivo; conditions: 25 mg/kg i.v., 5 times per week, 15 doses
Protocol: FBS was obtained from ATCC and all other reagents were obtained from Invitrogen Corp. (Carlsbad, Calif., USA). Cells that had been cryopreserved in liquid nitrogen were rapidly thawed at 37° C. and transferred to a tissue culture flask containing growth media and then incubated at 37° C. in a 5% CO2 incubator. To expand the cell line, cultures were passaged 1:2 to a density of 5×10(6) cells/ml every three days by adding an equal volume of fresh growth media. When the flasks reached a density of approximately 10×10(6) cells/ml, the above passaging process was repeated until sufficient cells had been obtained for implantation into mice.
(§1) Seven to eight week old, female CB17/Icr-Prkdc^scid/Crl (SCID) mice were obtained from Charles River Laboratories (Wilmington, Mass., USA). Animals were housed 4-5/cage in micro-isolators, with a 12 hr/12 hr light/dark cycle, acclimated for at least 1 week prior to use and fed normal laboratory chow ad libitum. Studies were conducted on animals that were between 8 and 12 weeks of age at the time of tumor cell implantation. […] Using a 27 gauge needle and 1 cc syringe, 0.1 ml of the cell suspension was injected subcutaneously into the shaved flanks of SCID mice. To implant SU-DHL-4 tumor cells into SCID mice, cell cultures were centrifuged to pellet the cells, the supernatant was aspirated and the cell pellet was resuspended in 10 ml of growth media and the cell number determined using a hemocytometer, washed in PBS and resuspended at a concentration of 10×10(7) cells/ml in 50% PBS and 50% Matrigel Basement Membrane Matrix (#354234; BD Biosciences; Bedford, Mass., USA). Using a 27 gauge needle and 1 cc syringe, 0.1 ml of the cell suspension was injected subcutaneously into the shaved flanks of SCID mice.
Tumors were then permitted to develop in vivo until the majority reached 100-200 mm^3 in tumor volume, which typically required 2-3 weeks following implantation. […] Tumor volumes (V) were calculated by caliper measurement of the width (W), length (L) and thickness (T) of tumors using the following formula: V=0.5236×(L×W×T). […]

SU-DHL-4 = SU-DHL-4 non-Hodgkin's lymphoma SCID mouse xenograft; format: in vivo; conditions: for % T/C value: FIG. 6
Protocol: The human non-Hodgkin's lymphoma tumor cell line, SU-DHL-4 (DSMZ #ACC 495), sub-classified as a GCB-type diffuse large B-cell lymphoma, was obtained from Deutsche Sammlung von Mikroorganismen und Zellkulturen GmbH (DSMZ; Braunschweig, Germany). […] FBS was obtained from ATCC and all other reagents were obtained from Invitrogen Corp. (Carlsbad, Calif., USA). Approximately 3-4×10(7) cells that had been cryopreserved in liquid nitrogen were rapidly thawed at 37° C. and transferred to a 175 cm^2 tissue culture flask containing 50 ml of growth media and then incubated at 37° C. in a 5% CO2 incubator. To passage and expand the cell line, the contents of a flask were centrifuged to pellet the cells, the supernatant was aspirated and the cell pellet was resuspended in 10 ml of growth media and the cell number determined using a hemocytometer. Approximately 3-4×10(7) cells per flask were seeded into 175 cm^2 flasks containing 50 ml of growth media and incubated at 37° C. in a 5% CO2 incubator. The above passaging process was repeated every 2-3 days until sufficient cells had been obtained for implantation into mice.
as §1
Tumors were then permitted to develop in vivo until the majority reached 100-200 mm^3 in tumor volume, which typically required 2-3 weeks following implantation. […] Tumor volumes (V) were calculated by caliper measurement of the width (W), length (L) and thickness (T) of tumors using the following formula: V=0.5236×(L×W×T). Animals were randomized into treatment groups so that the median tumor volumes of each group were similar at the start of dosing. % T/C values, as a measure of efficacy, were determined as follows: • (i) If ΔT>0: % T/C=(ΔT/ΔC)×100 • (ii) If ΔT<0: % T/C=(ΔT/T0)×100 • (iii) ΔT=Change in median tumor volume between start of dosing and the end of study. • (iv) ΔC=Change in median tumor volume between start of dosing and the end of study. • (v) T0=Median tumor volume at start of dosing.
To formulate Compound #226 in DRD, stock solutions of the test article were prepared by dissolving the appropriate amounts of the compound in dimethyl sulfoxide (DMSO) by sonication in an ultrasonic water bath. Stock solutions were prepared weekly, stored at −20° C. and diluted fresh each day for dosing. A solution of 20% Cremophore RH40 (polyoxyl 40 hydrogenated castor oil; BASF Corp., Aktiengesellschaft, Ludwigshafen, Germany) in 5% dextrose in water (Abbott Laboratories, North Chicago, Ill., USA) was also prepared by first heating 100% Cremophore RH40 at 50-60° C. until liquefied and clear, diluting 1:5 with 100% D5W, reheating again until clear and then mixing well. This solution was stored at room temperature for up to 3 months prior to use. To prepare DRD formulations for daily dosing, DMSO stock solutions were diluted 1:10 with 20% Cremophore RH40. […]

Compound	IC50 (Her2) [µM]	also measured
Oc1cc(O)c(-c2nnc(S)n2-c2cccc3ccccc23)cc1O [Compound 184, 3-(2,4,5-Trihydroxy-phenyl)-4-(naphthalene-1-yl)-5-mercapto-triazole]	3 to 10	–
COc1ccc(-n2c(S)nnc2-c2ccc(O)cc2O)cc1 [Compound 22, 3-(2,4-Dihydroxyphenyl)-4-(4-methoxyphenyl)-5-mercapto-triazole]	10 to 100	–
Cn1cc(-c2nnc(S)n2-c2cccc3ccccc23)c(O)cc1=O [Compound 60]	10 to 100	–
CCn1cc(-c2nnc(S)n2-c2cccc3ccccc23)c(O)cc1=O [Compound 59, 3-(1-ethyl-4-hydroxy-6-oxo-1,6-dihydro-pyridin-3-yl)-4-(naphthalen-1-yl)-5-mercapto-triazole]	10 to 100	–
CCc1cc(-c2nnc(S)n2-c2ccc(OC)c(N(C)CC)c2)c(O)cc1O [Compound 250, 4-(4-(3-(N-ethyl-N-methylamino)-4-methoxyphenyl)-5-mercapto-4H-1,2,4-triazol-3-yl)-6-ethylbenzene-1,3-diol]	< 3	–
CCc1cc(-c2nnc(S)n2-c2cccc3cc(OC)ccc23)c(O)cc1O [Compound 77, 3-(2,4-Dihydroxy-5-ethyl-phenyl)-4-(6-methoxy-naphthalin-1-yl)-5-mercapto-triazole]	< 3	–
COc1cc(-c2nnc(S)n2-c2cccc3ccccc23)c(O)cc1O [Compound 177, 3-(2,4-Dihydroxy-5-methoxy-phenyl)-4-(naphthalen-1-yl)-5-mercapto-triazole]	< 3	–
CCc1cc(-c2nnc(S)n2-c2ccc(OC)c(C)c2C)c(O)cc1O [Compound 79, 3-(2,4-Dihydroxy-5-ethyl-phenyl)-4-(2,3-dimethy-4-methoxy-phenyl)-5-mercapto-triazole]	< 3	–
CCc1cc(-c2nnc(S)n2-c2cccc(N(C)C)c2)c(O)cc1O [Compound 252, 4-(4-(3-(dimethylamino)phenyl)-5-mercapto-4H-1,2,4-triazol-3-yl)-6-ethylbenzene-1,3-diol]	< 3	–
Oc1nc(O)c(-c2nnc(S)n2-c2cccc3ccccc23)cc1F [Compound 62, 3-(2,6-Dihydroxy5-fluoro-pyridin-3-yl) 4-(naphthalen-1-yl)-5-mercapto-triazole]	10 to 100	–
CCCOc1ccc2c(-n3c(S)nnc3-c3ccc(O)cc3O)cccc2c1 [Compound 7]	3 to 10	–
CCc1cc(-c2nnc(S)n2-c2ccc(N(C)C)c(OC)c2)c(O)cc1O [Compound 259, 4-(4-(4-(dimethylamino)-3-methoxyphenyl)-5-mercapto-4H-1,2,4-triazol-3-yl)-6-ethylbenzene-1,3-diol]	< 3	–
CCOc1ccc2c(-n3c(S)nnc3-c3ccc(O)cc3O)cccc2c1 [Compound 6]	3 to 10	–
CC(C)c1cc(-c2nnc(O)n2-c2ccc3c(ccn3C)c2)c(O)cc1O [Compound 226, 3-(2,4-dihydroxy-5-isopropyl-phenyl)-4-(1-methyl-indol-5-yl)-5-hydroxy-[1,2,4] triazole]	–	overt toxicity (Daudi; SCID mice): not associated with overt toxicity; also recorded: Overt toxicity was not observed; % T/C value (Daudi; SCID mice, FIG. 5): 1.5%; average bodyweight loss relative to the start of the study (Daudi; day 41 / over the course of the study): −1.0%; % T/C value (SU-DHL-4; 50 mg/kg i.v., 2 times per week, 4 doses, SCID mice): 34.9%; % T/C value (SU-DHL-4; 75 mg/kg i.v., 2 times per week, 4 doses, SCID mice): 8.1%; % T/C value (SU-DHL-4; 100 mg/kg i.v., 2 times per week, 4 doses, SCID mice): −10.4%; overt toxicity (SU-DHL-4; 50, 75 and 100 mg/kg i.v., 2 times per week, 4 doses, SCID mice): not associated with overt toxicity; also recorded: Overt toxicity was not observed; average bodyweight loss relative to the start of the study (SU-DHL-4; highest dose group 100 mg/kg i.v., 2 times per week, 4 doses, day 31): −4.2%; average bodyweight loss (SU-DHL-4; over the course of the study, dose not stated (text on FIG. 6)): −1.0%
CCc1cc(-c2nnc(S)n2-c2ccc(OC)c(N(C)C)c2)c(O)cc1O [Compound 251, 4-(4-(3-(dimethylamino)-4-methoxyphenyl)-5-mercapto-4H-1,2,4-triazol-3-yl)-6-ethylbenzene-1,3-diol]	< 3	–
Oc1ccc(-c2nnc(S)n2-c2ccc(Cl)c3ccccc23)c(O)c1 [Compound 48, 3-(2,4-Dihydroxyphenyl)-4-(4-chloronaphthalen-1-yl)-5-mercapto-triazole]	3 to 10	–
